According to ChEMBL document CHEMBL4340502, “Anti-biofilm and anti-adherence properties of novel cyclic dipeptides against oral pathogens” (Bioorg Med Chem, 2019):
Converted amounts (≈) assume the structure as drawn. The source made the active and inactive calls. Unless noted, the calls are words filed in the database; no cut-off is given here.

Columns and labels:
Fusobacterium nucleatum = assay: Antibiofilm activity against Fusobacterium nucleatum ATCC 25586 assessed as inhibition of biofilm formation up to 96 ug/mL after 24 hrs by crystal violet staining based assay; type: functional, organism-based
Porphyromonas gingivalis = assay: Antibiofilm activity against Porphyromonas gingivalis ATCC 33277 assessed as inhibition of biofilm formation up to 96 ug/mL after 24 hrs by crystal violet staining based assay; type: functional, organism-based
[1] = system: Limosilactobacillus fermentum; assay: Antibiofilm activity against Lactobacillus fermentum LacB1 assessed as inhibition of biofilm formation up to 96 ug/mL after 24 hrs by crystal violet staining based assay; type: functional, organism-based
Streptococcus mutans [2] = assay: Antiadherence activity in FITC-labelled Streptococcus mutans ATCC 25175 assessed as reduction of bacterial adhesion to hydroxylapatite at 96 ug/mL after 1 hr by fluorescence assay; type: functional; design: scale not given: the % may be the effect or the level left
Candida albicans [3] = assay: Antiadherence activity in FITC-labelled Candida albicans ATCC 28366 assessed as reduction of bacterial adhesion to hydroxylapatite at 96 ug/mL after 1 hr by fluorescence assay relative to control; type: functional; design: scale not given: the % may be the effect or the level left
Listeria monocytogenes = assay: Growth inhibition of Listeria monocytogenes WSLC 1001 incubated for 24 hrs under aerobic condition by microdilution method; type: organism-based; settings: in vitro
Staphylococcus aureus [4] = assay: Growth inhibition of Staphylococcus aureus ATCC 6538 incubated for 24 hrs under aerobic condition by microdilution method; type: organism-based; settings: in vitro
Pseudomonas aeruginosa [5] = assay: Growth inhibition of Pseudomonas aeruginosa ATCC 10145 incubated for 24 hrs under aerobic condition by microdilution method; type: organism-based
Escherichia coli [6] = assay: Growth inhibition of Escherichia coli ATCC 15939 incubated for 24 hrs under aerobic condition by microdilution method; type: organism-based
Streptococcus mutans [7] = assay: Antibiofilm activity against Streptococcus mutans ATCC 25175 assessed as inhibition of biofilm formation up to 96 ug/mL after 24 hrs by crystal violet staining-based assay; type: functional, organism-based
Streptococcus mutans [8] = assay: Inhibition of planktonic growth of Streptococcus mutans ATCC 25175 up to 96 ug/mL after 24 hrs relative to control; type: organism-based
[9] = Solubility of the compound in water; type: physicochemical; settings: buffer
Candida albicans [10] = assay: Antiadherence activity against FITC-labelled Candida albicans ATCC 28366 assessed as reduction in bacterial adhesion to hydroxylapatite at 3 ug/mL after 1 hr by fluorescence assay; type: functional, organism-based
Streptococcus mutans [11] = assay: Antiadherence activity in FITC-labelled Streptococcus mutans ATCC 25175 assessed as reduction in bacterial adhesion to hydroxylapatite at 3 ug/mL after 1 hr fluorescence assay; type: functional, organism-based
[12] = molecular target: Mu-type opioid receptor (Rattus norvegicus) (UniProt P33535); assay: Displacement of [3H]DAMGO from mu-opioid receptor in Long-Evans rat brain after 1 hr by liquid scintillation counting method; type: tissue-based
Chain of Mu-type opioid receptor (Rattus norvegicus) (P33535 whole entry): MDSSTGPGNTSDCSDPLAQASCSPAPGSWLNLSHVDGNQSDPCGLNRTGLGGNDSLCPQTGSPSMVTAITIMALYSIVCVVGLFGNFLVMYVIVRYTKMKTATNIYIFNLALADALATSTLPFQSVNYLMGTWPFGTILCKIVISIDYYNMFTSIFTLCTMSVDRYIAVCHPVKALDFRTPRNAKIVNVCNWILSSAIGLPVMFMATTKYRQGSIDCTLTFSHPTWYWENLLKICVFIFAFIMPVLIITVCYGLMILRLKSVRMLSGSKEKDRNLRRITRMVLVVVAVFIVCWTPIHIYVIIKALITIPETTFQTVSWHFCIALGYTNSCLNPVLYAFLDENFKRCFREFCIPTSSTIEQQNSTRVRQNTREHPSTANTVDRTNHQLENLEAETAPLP

Streptococcus mutans [13] = assay: Growth inhibition of Streptococcus mutans ATCC 25175 incubated for 24 hrs under aerobic condition by microdilution method; type: organism-based
Streptococcus mutans [14] = assay: Bactericidal activity against Streptococcus mutans ATCC 25175; type: organism-based
Candida albicans [15] = assay: Antiadherence activity against FITC-labelled Candida albicans ATCC 28366 assessed as reduction in bacterial adhesion to hydroxylapatite up to 96 ug/mL after 1 hr by fluorescence assay relative to control; type: functional; design: scale not given: the % may be the effect or the level left
Streptococcus mutans [16] = assay: Antiadherence activity in FITC-labelled Streptococcus mutans ATCC 25175 assessed as reduction in bacterial adhesion to hydroxylapatite up to 96 ug/mL after 1 hr fluorescence assay; type: functional, organism-based
Candida albicans [17] = assay: Antibiofilm activity against Candida albicans ATCC 28366 assessed as reduction of biofilm formation up to 96 ug/mL after 24 hrs by crystal violet staining based assay; type: functional, organism-based
Actinomyces naeslundii = assay: Antibiofilm activity against Actinomyces naeslundii ATCC 49340 assessed as reduction in biofilm formation up to 96 ug/mL after 24 hrs by crystal violet staining-based assay; type: functional, organism-based
Candida albicans [18] = assay: Growth inhibition of Candida albicans ATCC 28366 up to 96 ug/ml measured after 24 hrs by microdilution method; type: organism-based; settings: in vitro
Streptococcus mutans [19] = assay: Inhibition of planktonic growth of Streptococcus mutans ATCC 25175 at 96 ug/mL measured after 24 hrs relative to control; type: organism-based
Fibroblast = assay: Cytotoxicity against human fibroblasts; type: cell-based
A549 = assay: Growth inhibition of human A549 cells; type: functional, cell-based
Streptococcus mutans [20] = assay: Inhibition of planktonic growth of Streptococcus mutans ATCC 25175 at MIC> 192 ug/mL after 24 hrs relative to control; type: organism-based
Staphylococcus aureus [21] = assay: Antibacterial activity against Staphylococcus aureus MTCC 902 measured after 24 hrs by broth dilution method; type: functional; settings: MTCC 902, 24 h
Escherichia coli [22] = assay: Antibacterial activity against Escherichia coli MTCC 2622 measured after 24 hrs by broth dilution method; type: functional; settings: MTCC 2622, 24 h
Pseudomonas aeruginosa [23] = assay: Antibacterial activity against Pseudomonas aeruginosa MTCC 2642 measured after 24 hrs by broth dilution method; type: functional; settings: MTCC 2642, 24 h

SMILES	inhibition (Fusobacterium nucleatum)	inhibition (Porphyromonas gingivalis)	inhibition [1]	MIC (Listeria monocytogenes)	MIC (Staphylococcus aureus [4])	MIC (Pseudomonas aeruginosa [5])	MIC (Escherichia coli [6])	inhibition (Streptococcus mutans [7])	growth inhibition (GI) (Streptococcus mutans [8])	Activity [12]	Activity (Candida albicans [15])	Activity (Candida albicans [17])	Activity (Actinomyces naeslundii)	growth inhibition (GI) (Candida albicans [18])	Activity (Fibroblast)	further results
O=C1N[C@H](Cc2ccc(OCc3ccccc3)cc2)C(=O)N[C@H]1Cc1ccc(OCc2ccccc2)cc1	inactive	inactive	inactive	> 192 mg/L	> 192 mg/L	> 192 mg/L	> 192 mg/L	inactive	Non-Toxic	–	–	–	–	–	–	Activity (Streptococcus mutans [2]): 82%; Activity (Candida albicans [3]): 53%; solubility [9]: Insoluble; Activity (Candida albicans [10]): inactive; Activity (Streptococcus mutans [11]): inactive
O=C1N[C@@H](Cc2ccc(O)cc2)C(=O)N[C@H]1Cc1ccc(O)cc1	inactive	inactive	inactive	> 192 mg/L	> 192 mg/L	> 192 mg/L	> 192 mg/L	inactive	Toxic	Active	20%	Active	inactive	Non-Toxic	–	MIC (Streptococcus mutans [13]): 96 mg/L (≈ 294 µM); MBC (Streptococcus mutans [14]): > 192 mg/L; Activity (Streptococcus mutans [16]): inactive
O=C1N[C@@H](Cc2ccc(O)cc2)C(=O)N[C@H]1Cc1ccccc1	inactive	inactive	inactive	> 192 mg/L	> 192 mg/L	> 192 mg/L	> 192 mg/L	inactive	Toxic	Active	inactive	Active	inactive	Non-Toxic	Non-Toxic	inhibition (INH) (Streptococcus mutans [19]): 20%; IC50 (A549): 10 µM
O=C1N[C@H](Cc2ccc(O)cc2)C(=O)N[C@@H]1Cc1ccccc1	inactive	inactive	inactive	> 192 mg/L	> 192 mg/L	> 192 mg/L	> 192 mg/L	inactive	Toxic	–	inactive	Active	inactive	Non-Toxic	Non-Toxic	inhibition (INH) (Streptococcus mutans [20]): 20%; MIC (Staphylococcus aureus [21]): 16 mg/L (≈ 51.6 µM); MIC (Escherichia coli [22]): 64 mg/L (≈ 206 µM); MIC (Pseudomonas aeruginosa [23]): 32 mg/L (≈ 103 µM)
